This is an account of results in patent US12378224B2 (Dong-A Socio Holdings Co., Ltd., priority 2016, dated 2025).

pIC50: −log10 of the molar value.

One assay has as its target human MER (528-end) (Homo sapiens (Human), UniProt Q12866). As to the kind of experiment: HTRF Kinase Activity Biochemical Assay (KinEASE-TK). Conditions: 10 uM ATP. Put shortly:
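Activity read-out is the HTRF ratio (665 nm over 620 nm emission, ×10,000; excitation 340 nm) after 1 h detection with 0.375 nM Eu3+-cryptate anti-TK antibody plus 0.062 uM SA-XL665. Preceding kinase step: human MER (528-end), biotinylated TK substrate, 1 h, room temperature.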
A general note: Time-resolved FRET reads energy transfer from a long-lived donor to a nearby acceptor.

The target in assay [1] is BCR fusion to kinase domain of MerTK (Ba/F3-MerTK) (Homo sapiens, UniProt Q12866). As to the kind of experiment: In Cell TAM Kinase Assay Using BaF3 Cellular System. Format: cell-based, murine. Conditions: Ba/F3 BCR-kinase fusion proliferation, 72 hours, Cell Titer Glo; kinase not given; read-out: IC50. The text has this: Three Ba/F3 cell lines (a murine IL-3 dependent pro-B cell line) expressing BCR fusions to the kinase domains of either MerTK (Ba/F3-MerTK), Axl (Ba/F3-Axl), or Tyro3 (Ba/F3-Tyro3) were purchased from Advanced Cellular Dynamics. The IL-3 independence of all 3 cell lines was confirmed. After thawing, the 3 Ba/F3 cell lines were split and maintained in cell culture media, which consisted of RPMI-1640-HEPES (Thermo-Cat #22400-089) with 1× Glutamax (Thermo-Cat #35050-061) and 10% FBS (Sigma-Cat #F4135 (500 ml), at a cell density range of 0.05×10^6−1×10^6 cells/mL 4 days before used in the routine screen. Compound plates were prepared using Nunc™ white 384-well optical bottom plates (ThermoFisher, USA) with compound in 25 nL dimethyl sulfoxide in each well. For routine assays, each of the 3 Ba/F3 cell lines was seeded at 1,000 cells per well with 25 µL of cell culture media directly into 384-well compound plates and incubated for 72 hours. Cell proliferation was then measured by adding 25 μL of Cell Titer Glo 2.0 (Promega, USA). After incubating with Cell Titer Glo at room temperature for 30 mins, the luminescence intensity, which quantifies the cell viability, was measured using an Envision™ plate reader (PerkinElmer, USA). […] In the presence of IL-3, the proliferation of the Ba/F3-Tyro3 cells is no longer dependent on the Tyro3 kinase activity.
Chain of BCR fusion to kinase domain of MerTK (Ba/F3-MerTK) (Q12866 21-999 limits assumed, stated change not applied): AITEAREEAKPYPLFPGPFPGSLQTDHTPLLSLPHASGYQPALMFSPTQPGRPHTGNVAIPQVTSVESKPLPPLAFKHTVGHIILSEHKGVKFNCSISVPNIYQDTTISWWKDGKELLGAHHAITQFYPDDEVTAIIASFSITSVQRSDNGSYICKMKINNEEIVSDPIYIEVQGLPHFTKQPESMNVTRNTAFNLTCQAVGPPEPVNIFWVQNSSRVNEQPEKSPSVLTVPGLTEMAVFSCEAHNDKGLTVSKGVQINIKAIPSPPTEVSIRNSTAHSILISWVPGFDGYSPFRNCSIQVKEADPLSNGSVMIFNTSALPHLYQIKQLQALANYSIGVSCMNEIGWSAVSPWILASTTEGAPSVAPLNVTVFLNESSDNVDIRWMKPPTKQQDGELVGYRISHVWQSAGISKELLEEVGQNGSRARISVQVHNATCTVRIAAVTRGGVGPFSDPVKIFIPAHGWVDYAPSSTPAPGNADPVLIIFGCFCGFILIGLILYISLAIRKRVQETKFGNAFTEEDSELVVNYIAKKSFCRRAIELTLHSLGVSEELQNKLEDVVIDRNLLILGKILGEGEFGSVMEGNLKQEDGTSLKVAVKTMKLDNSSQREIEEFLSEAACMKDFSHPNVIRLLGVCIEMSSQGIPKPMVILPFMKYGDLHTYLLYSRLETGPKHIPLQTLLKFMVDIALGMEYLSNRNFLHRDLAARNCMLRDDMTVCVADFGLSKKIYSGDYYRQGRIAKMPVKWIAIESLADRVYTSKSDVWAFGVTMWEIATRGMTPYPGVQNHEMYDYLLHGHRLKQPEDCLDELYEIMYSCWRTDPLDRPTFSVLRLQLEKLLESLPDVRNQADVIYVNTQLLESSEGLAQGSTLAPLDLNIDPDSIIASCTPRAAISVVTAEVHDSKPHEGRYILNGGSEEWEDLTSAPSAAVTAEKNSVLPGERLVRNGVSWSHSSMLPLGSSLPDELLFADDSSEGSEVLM
Background: In ATP-based viability assays light output follows the ATP content of the culture.

The target in assay [2] is human c-MER catalytic domain (Homo sapiens (Human), UniProt Q12866). As to the kind of experiment: TR-FRET Kinase Activity Biochemical Assay (LanthaScreen). Conditions: 10 uM ATP, 1 hour, kinase not given. In a few lines:
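Activity was quantified as the ratio of 495 nm to 520 nm emission (excitation 340 nm) in a LanthaScreen TR-FRET format. The enzyme was the human c-MER catalytic domain, and the substrate was fluorescein-poly-GT. Detection used 2 nM Tb anti-phosphotyrosine antibody for 30 min after termination with 10 mM EDTA.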

Chain of human MER (528-end) (Q12866 528-999 limits assumed): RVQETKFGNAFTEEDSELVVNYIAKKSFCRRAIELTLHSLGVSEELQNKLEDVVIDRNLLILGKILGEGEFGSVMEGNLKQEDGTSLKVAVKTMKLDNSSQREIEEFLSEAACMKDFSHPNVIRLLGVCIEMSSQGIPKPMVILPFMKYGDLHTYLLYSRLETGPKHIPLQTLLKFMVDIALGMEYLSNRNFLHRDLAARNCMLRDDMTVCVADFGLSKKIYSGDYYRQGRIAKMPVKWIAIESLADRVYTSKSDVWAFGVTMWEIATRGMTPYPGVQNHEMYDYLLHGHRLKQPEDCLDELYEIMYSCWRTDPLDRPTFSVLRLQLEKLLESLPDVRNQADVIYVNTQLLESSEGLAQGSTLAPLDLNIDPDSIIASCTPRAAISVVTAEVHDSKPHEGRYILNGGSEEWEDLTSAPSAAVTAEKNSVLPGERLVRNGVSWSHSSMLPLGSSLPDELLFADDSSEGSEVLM
Chain of human c-MER catalytic domain (Q12866 587-858): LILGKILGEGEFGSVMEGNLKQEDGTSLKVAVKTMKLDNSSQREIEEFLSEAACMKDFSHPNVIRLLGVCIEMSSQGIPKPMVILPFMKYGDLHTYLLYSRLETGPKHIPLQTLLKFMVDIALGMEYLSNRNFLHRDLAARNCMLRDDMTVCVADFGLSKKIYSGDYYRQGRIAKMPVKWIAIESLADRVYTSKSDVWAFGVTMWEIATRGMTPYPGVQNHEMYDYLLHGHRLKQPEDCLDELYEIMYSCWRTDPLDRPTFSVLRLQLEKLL

For orientation: pIC50 means −log10 of the IC50, conventionally taken in molar units. `Cn1cc(-c2cnc(N)c(C(=O)N[C@@H]3CCN(C(=O)OC4CCCC(c5ccccc5)C4)C3)c2)cn1` (stereo partly drawn) [Example 129, 3-phenylcyclohexyl (3R)-3-(2-amino-5-(1-methyl-1H-pyrazol-4-yl)nicotinamido)pyrrolidine-1-carboxylate]: the negative-log IC50 (pIC50) at human MER (528-end) is less than 6.00; in assay [1], 6.30 to 7.00.
As for `Cn1cc(-c2cnc(N)c(C(=O)N[C@@H]3CCN(C(=O)c4ccc(-c5ccc(F)cc5F)cc4)C3)c2)cn1` [Example 365, (R)-2-amino-N-(1-(2′,4′-difluoro-[1,1′-biphenyl]-4-carbonyl)pyrrolidin-3-yl)-5-(1-methyl-1H-pyrazol-4-yl)nicotinamide], the negative logarithm of the IC50 (pIC50) at human MER (528-end) was 7.00 to 8.00; in assay [1], less than 6.00.
As to `Cn1cc(-c2cnc(N)c(C(=O)N[C@@H]3CCN(C(=O)c4ccc(-c5ccc(F)cc5Cl)cc4)C3)c2)cn1` [Example 366, (R)-2-amino-N-(1-(2′-chloro-4′-fluoro-[1,1′-biphenyl]-4-carbonyl)pyrrolidin-3-yl)-5-(1-methyl-1H-pyrazol-4-yl)nicotinamide], the pIC50 is 7.00 to 8.00 at human MER (528-end) and 6.30 to 7.00 in assay [1].
The matching figures for `Cn1cc(-c2cnc(N)c(C(=O)N[C@@H]3CCN(C(=O)c4ccc(-c5ccccc5F)cc4)C3)c2)cn1` [Example 370, (R)-2-amino-N-(1-(2′-fluoro-[1,1′-biphenyl]-4-carbonyl)pyrrolidin-3-yl)-5-(1-methyl-1H-pyrazol-4-yl)nicotinamide]: 7.00 to 8.00 and less than 6.00.
As to `Cn1cc(-c2cnc(N)c(C(=O)N[C@@H]3CCN(C(=O)c4ccc(-c5ccc(C=O)cc5)cc4)C3)c2)cn1` [Example 381, (R)-2-amino-N-(1-(4′-formyl-[1,1′-biphenyl]-4-carbonyl)pyrrolidin-3-yl)-5-(1-methyl-1H-pyrazol-4-yl)nicotinamide], the negative-log IC50 (pIC50) at human MER (528-end) was 6.00 to 7.00; in assay [1] it was less than 6.00.
Turning to `Cn1cc(-c2cnc(N)c(C(=O)N[C@@H]3CCN(C(=O)c4ccc(-c5ccc(Oc6ccc(N)cc6)cc5)cc4)C3)c2)cn1` [Example 505, (R)-2-amino-N-(1-(4′-(4-aminophenoxy)-[1,1′-biphenyl]-4-carbonyl)pyrrolidin-3-yl)-5-(1-methyl-1H-pyrazol-4-yl)nicotinamide], the pIC50 against human MER (528-end) is 6.00 to 7.00; in assay [1] it was less than 6.00.
With `Cc1cscc1-c1ccc(C(=O)N2CC[C@@H](NC(=O)c3cc(-c4cnn(C)c4)cnc3N)C2)cc1` [Example 523, (R)-2-amino-5-(1-methyl-1H-pyrazol-4-yl)-N-(1-(4-(4-methylthiophen-3-yl)benzoyl)pyrrolidin-3-yl)nicotinamide], the figures for the negative-log IC50 (pIC50) (against human MER (528-end); in assay [1]) were 7.00 to 8.00 and 6.00 to 6.30, respectively.
Regarding `Cc1csc(-c2ccc(C(=O)N3CC[C@@H](NC(=O)c4cc(-c5cnn(C)c5)cnc4N)C3)cc2)c1` [Example 525, (R)-2-amino-5-(1-methyl-1H-pyrazol-4-yl)-N-(1-(4-(4-methylthiophen-2-yl)benzoyl)pyrrolidin-3-yl)nicotinamide], the negative logarithm of the IC50 (pIC50) at human MER (528-end) was 7.00 to 8.00; in assay [1], 6.30 to 7.00.
The matching figures for `Cc1ccc(-c2ccc(C(=O)N3CC[C@@H](NC(=O)c4cc(-c5cnn(C)c5)cnc4N)C3)cc2)s1` [Example 526, (R)-2-amino-5-(1-methyl-1H-pyrazol-4-yl)-N-(1-(4-(5-methylthiophen-2-yl)benzoyl)pyrrolidin-3-yl)nicotinamide]: 7.00 to 8.00 and less than 6.00.
In the case of `Cn1cc(-c2cnc(N)c(C(=O)N[C@@H]3CCN(C(=O)c4ccc(-c5ccc(Cl)s5)cc4)C3)c2)cn1` [Example 534, (R)-2-amino-N-(1-(4-(5-chlorothiophen-2-yl)benzoyl)pyrrolidin-3-yl)-5-(1-methyl-1H-pyrazol-4-yl)nicotinamide], the negative logarithm of the IC50 (pIC50) against human MER (528-end) was 7.00 to 8.00; in assay [1] it was less than 6.00.
Taken in the same sequence, the figures for `Cn1cc(-c2cnc(N)c(C(=O)N[C@@H]3CCN(C(=O)C(=O)c4ccccc4)C3)c2)cn1` [Example 546, (R)-2-amino-5-(1-methyl-1H-pyrazol-4-yl)-N-(1-(2-oxo-2-phenylacetyl)pyrrolidin-3-yl)nicotinamide] were less than 6.00 and less than 6.00.
The matching figures for `CC(C)(c1ccc(-c2cnc(N)c(C(=O)N[C@@H]3CCN(C(=O)c4ccc(-c5ccccc5)cc4)C3)c2)cc1)N1CCN(CCO)CC1` [Example 565, (R)—N -(1-([1,1′-biphenyl]-4-carbonyl)pyrrolidin-3-yl)-2-amino-5-(4-(2-(4-(2-hydroxyethyl)piperazin-1-yl)propan-2-yl)phenyl)nicotinamide]: 7.00 to 8.00 and less than 6.00.
In the case of `CN1CCN(Cc2ccc(-c3cnc(N)c(C(=O)N[C@@H]4CCN(C(=O)c5ccc(-c6ccccc6)cc5)C4)c3)cc2)CC1` [Example 567, (R)—N-(1-([1,1′-biphenyl]-4-carbonyl)pyrrolidin-3-yl)-2-amino-5-(4-((4-methylpiperazin-1-yl)methyl)phenyl)nicotinamide], the negative logarithm of the IC50 (pIC50) at human MER (528-end) was 7.00 to 8.00; in assay [1] it was less than 6.00.
Taken in the same sequence, the figures for `Nc1ncc(-c2ccc(N3CCOCC3)nc2)cc1C(=O)N[C@@H]1CCN(C(=O)c2ccc(-c3ccc(F)cc3Cl)cc2)C1` [Example 584, (R)-6-amino-N-(1-(2′-chloro-4′-fluoro-[1,1′-biphenyl]-4-carbonyl)pyrrolidin-3-yl)-6′-morpholino-[3,3′-bipyridine]-5-carboxamide] were 7.00 to 8.00 and less than 6.00.
The matching figures for `Nc1ncc(-c2cnn(Cc3cccnc3)c2)cc1C(=O)N[C@@H]1CCN(C(=O)c2ccc(-c3ccc(F)cc3Cl)cc2)C1` [Example 586, (R)-2-amino-N-(1-(2′-chloro-4′-fluoro-[1,1′-biphenyl]-4-carbonyl)pyrrolidin-3-yl)-5-(1-(pyridin-3-ylmethyl)-1H-pyrazol-4-yl)nicotinamide]: 7.00 to 8.00 and 6.00 to 6.30.
On to `CN1CCN(C(=O)c2ccc(-c3cnc(N)c(C(=O)N[C@@H]4CCN(C(=O)c5ccc(-c6ccccc6Cl)cc5)C4)c3)cc2)CC1` [Example 588, (R)-2-amino-N-(1-(2′-chloro-[1,1′-biphenyl]-4-carbonyl)pyrrolidin-3-yl)-5-(4-(4-methylpiperazine-1-carbonyl)phenyl)nicotinamide], for which the values for the pIC50 (on human MER (528-end); in assay [1]) were 7.00 to 8.00 and less than 6.00, respectively.
Take `Nc1ncc(-c2ccc(C(=O)N3CCOCC3)cc2)cc1C(=O)N[C@@H]1CCN(C(=O)c2ccc(-c3ccccc3Cl)cc2)C1` [Example 590, (R)-2-amino-N-(1-(2′-chloro-[1,1′-biphenyl]-4-carbonyl)pyrrolidin-3-yl)-5-(4-(morpholine-4-carbonyl)phenyl)nicotinamide]: the pIC50 against human MER (528-end) is 7.00 to 8.00; in assay [1], less than 6.00.
With `Cn1cc(-c2cnc(N)c(C(=O)N[C@@H]3CCN(C(=O)c4ccc5cc(OCC6CCNCC6)ccc5c4)C3)c2)cn1` [Example 761], the pIC50 in assay [1] was less than 6.00.
The molecule `CN(C)CCCNc1ncc(-c2cnn(C)c2)cc1C(=O)N[C@@H]1CCN(C(=O)c2ccc(-c3ccc(OCCCN(C)C)cc3)cc2)C1` [Example 848, (R)—N-(1-(4′-(3-(dimethylamino)propoxy)-[1,1′-biphenyl]-4-carbonyl)pyrrolidin-3-yl)-2-((3-(dimethylamino)propyl)amino)-5-(1-methyl-1H-pyrazol-4-yl)nicotinamide] showed a pIC50 in assay [2] of 6.00 to 7.00.
For the molecule “(R,E)-2-amino-5-(1-methyl-1H-pyrazol-4-yl)-N-(1-(4-(3-oxobut-1-en-1-yl)benzoyl)pyrrolidin-3-yl)nicotinamide [Example 681]”, the pIC50 in assay [2] is less than 6.00.
